Assay results as given in patent US20260356817A1, “AMINOPYRIMIDINE AND AMINOTRIAZINE DERIVATIVES AS MYC PROTEIN MODULATORS” (Sanford Burnham Prebys Medical Discovery Institute, priority 2022, published 2026).
Read-outs that look alike come from different tables or passages of the source.

Test system: Myc
Assay: Myc inhibition assay: Myc expression per cell by anti-Myc immunofluorescence, high-content imaging
Assay type: cell-based, human (patient-derived medulloblastoma xenograft cells)
Conditions: medulloblastoma PDX cells, 4 h
How it was run: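 Cells from Myc-driven medulloblastoma patient-derived orthotopic xenografts, propagated only in NSG mouse cerebellum, were dissociated and plated in serum-free medium. After overnight recovery, compounds were applied for 4 hours; cells were then fixed, stained for Myc and DAPI, and per-cell Myc quantified by high-content imaging to derive IC50.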

[1] = Table 1, read-out: IC50 (Myc inhibition)
[2] = Table 2, read-out: MYC Inhibition IC50

IC50 [1] [µM] | IC50 [2] [µM] | Structure (SMILES)
0.2 to 1 | 0.2 to 1 | Oc1ncc(-c2ccnc(Nc3cccc(C(F)(F)F)c3)n2)s1 [Compound 144, 5-(2-((3-(trifluoromethyl)phenyl)amino)pyrimidin-4-yl)thiazol-2-ol]
1 to 10 | 1 to 10 | Oc1cc(-c2ccnc(Nc3cncc(F)c3)n2)ccn1 [Compound 145, 4-(2-((5-fluoropyridin-3-yl)amino)pyrimidin-4-yl)pyridin-2-ol]
1 to 10 | 1 to 10 | COc1cc(-c2ccnc(Nc3cncc(F)c3)n2)ccn1 [Compound 146, N-(5-fluoropyridin-3-yl)-4-(2-methoxypyridin-4-yl)pyrimidin-2-amine]
1 to 10 | 1 to 10 | Oc1cc(-c2ccnc(Nc3cc(F)cc(F)c3)n2)ccn1 [Compound 147, 4-(2-((3,5-difluorophenyl)amino)pyrimidin-4-yl)pyridin-2-ol]
1 to 10 | 1 to 10 | COc1cc(-c2ccnc(Nc3cc(F)cc(F)c3)n2)ccn1 [Compound 148, N-(3,5-difluorophenyl)-4-(2-methoxypyridin-4-yl)pyrimidin-2-amine]
0.2 to 1 | 0.2 to 1 | CC(C)(C)c1cccc(Nc2nccc(-c3ccnc(O)c3)n2)c1 [Compound 149, 4-(2-((3-(tert-butyl)phenyl)amino)pyrimidin-4-yl)pyridin-2-ol]
1 to 10 | 1 to 10 | COc1cc(-c2ccnc(Nc3cccc(C(C)(C)C)c3)n2)ccn1 [Compound 150, N-(3-(tert-butyl)phenyl)-4-(2-methoxypyridin-4-yl)pyrimidin-2-amine]
< 0.2 | < 0.2 | Fc1cccc(Nc2nccc(-c3cnc4nc[nH]c4c3)n2)c1 [Compound 151, N-(3-fluorophenyl)-4-(1H-imidazo[4,5-b]pyridin-6-yl)pyrimidin-2-amine]
1 to 10 | 1 to 10 | FC(F)(F)c1cccc(Nc2nccc(-c3ccc4[nH]ccc4c3)n2)c1 [Compound 152, 4-(1H-indol-5-yl)-N-(3-(trifluoromethyl)phenyl)pyrimidin-2-amine]
1 to 10 | 1 to 10 | Fc1cccc(Nc2nccc(-c3ccc4[nH]ccc4c3)n2)c1 [Compound 153, N-(3-fluorophenyl)-4-(1H-indol-5-yl)pyrimidin-2-amine]
0.2 to 1 | 0.2 to 1 | Oc1cc(-c2ccnc(Nc3cncc(C(F)(F)F)c3)n2)ccn1 [Compound 154, 4-(2-((5-(trifluoromethyl)pyridin-3-yl)amino)pyrimidin-4-yl)pyridin-2-ol]
10 to 100 | 10 to 100 | COc1cc(-c2ccnc(Nc3cncc(C(F)(F)F)c3)n2)ccn1 [Compound 155, 4-(2-methoxypyridin-4-yl)-N-(5-(trifluoromethyl)pyridin-3-yl)pyrimidin-2-amine]
10 to 100 | 10 to 100 | Oc1cc(-c2ccnc(Nc3ccnc(C(F)(F)F)c3)n2)ccn1 [Compound 156, 4-(2-((2-(trifluoromethyl)pyridin-4-yl)amino)pyrimidin-4-yl)pyridin-2-ol]
10 to 100 | 10 to 100 | COc1cc(-c2ccnc(Nc3ccnc(C(F)(F)F)c3)n2)ccn1 [Compound 157, 4-(2-methoxypyridin-4-yl)-N-(2-(trifluoromethyl)pyridin-4-yl)pyrimidin-2-amine]
10 to 100 | 10 to 100 | Oc1cc(-c2ccnc(Nc3cc(C(F)(F)F)ccn3)n2)ccn1 [Compound 158, 4-(2-((4-(trifluoromethyl)pyridin-2-yl)amino)pyrimidin-4-yl)pyridin-2-ol]
0.2 to 1 | 0.2 to 1 | Cc1cccc(Nc2nccc(-c3ccnc(O)c3)n2)c1 [Compound 159, 4-(2-(m-tolylamino)pyrimidin-4-yl)pyridin-2-ol]
1 to 10 | 1 to 10 | COc1cc(-c2ccnc(Nc3cccc(C)c3)n2)ccn1 [Compound 160, 4-(2-methoxypyridin-4-yl)-N-(m-tolyl)pyrimidin-2-amine]
< 0.2 | < 0.2 | FC(F)(F)c1cccc(Nc2nccc(-c3cnc4nc[nH]c4c3)n2)c1 [Compound 161, 4-(1H-imidazo[4,5-b]pyridin-6-yl)-N-(3-(trifluoromethyl)phenyl)pyrimidin-2-amine]
10 to 100 | 10 to 100 | COc1cc(-c2ccnc(Nc3ccccc3)n2)ncn1 [Compound 162, 6′-methoxy-N-phenyl-[4,4′-bipyrimidin]-2-amine]
10 to 100 | 10 to 100 | COc1nccc(-c2ccnc(Nc3ccccc3)n2)n1 [Compound 163, 2′-Methoxy-N-phenyl-[4,4′-bipyrimidin]-2-amine]
1 to 10 | 1 to 10 | FC(F)(F)c1cccc(Nc2nccc(-c3ccc4cn[nH]c4c3)n2)c1 [Compound 164, 4-(1H-indazol-6-yl)-N-(3-(trifluoromethyl)phenyl)pyrimidin-2-amine]
1 to 10 | 1 to 10 | Fc1cccc(Nc2nccc(-c3ccc4[nH]ncc4c3)n2)c1 [Compound 165, N-(3-Fluorophenyl)-4-(1H-indazol-5-yl)pyrimidin-2-amine]

IC50 [1] [µM] | IC50 [2] [µM] | Structure (SMILES)
10 to 100 | 10 to 100 | COc1cc(-c2ccnc(Nc3cc(C(F)(F)F)ccn3)n2)ccn1 [Compound 166, 4-(2-methoxypyridin-4-yl)-N-(4-(trifluoromethyl)pyridin-2-yl)pyrimidin-2-amine]
10 to 100 | 10 to 100 | Oc1cc(-c2ccnc(Nc3cccc(C(F)(F)F)n3)n2)ccn1 [Compound 167, 4-(2-((6-(trifluoromethyl)pyridin-2-yl)amino)pyrimidin-4-yl)pyridin-2-ol]
10 to 100 | 10 to 100 | COc1cc(-c2ccnc(Nc3cccc(C(F)(F)F)n3)n2)ccn1 [Compound 168, 4-(2-methoxypyridin-4-yl)-N-(6-(trifluoromethyl)pyridin-2-yl)pyrimidin-2-amine]
10 to 100 | 10 to 100 | Fc1cccc(Nc2nccc(-c3cnc4[nH]ccc4c3)n2)c1 [Compound 169, N-(3-fluorophenyl)-4-(1H-pyrrolo[2,3-b]pyridin-5-yl)pyrimidin-2-amine]
1 to 10 | 1 to 10 | Oc1ccc(-c2ccnc(Nc3cc(F)ccn3)n2)nc1 [Compound 170, 6-(2-((4-fluoropyridin-2-yl)amino)pyrimidin-4-yl)pyridin-3-ol]
1 to 10 | 1 to 10 | FC(F)(F)c1cccc(Nc2nccc(-c3ccc4cc[nH]c4c3)n2)c1 [Compound 172, 4-(1H-indol-6-yl)-N-(3-(trifluoromethyl)phenyl)pyrimidin-2-amine]
10 to 100 | 10 to 100 | Oc1cccc(-c2ccnc(Nc3cccc(C(F)(F)F)c3)n2)c1 [Compound 173, 3-(2-((3-(trifluoromethyl)phenyl)amino)pyrimidin-4-yl)phenol]
10 to 100 | 10 to 100 | COc1ccc(-c2ccnc(Nc3cccc(F)c3)n2)nc1 [Compound 174, N-(3-fluorophenyl)-4-(5-methoxypyridin-2-yl)pyrimidin-2-amine]
10 to 100 | 10 to 100 | Oc1cc(-c2ccnc(Nc3ccncn3)n2)ccn1 [Compound 175, 4-(2-(pyrimidin-4-ylamino)pyrimidin-4-yl)pyridin-2-ol]
1 to 10 | 1 to 10 | COc1ccc(-c2ccnc(Nc3cccc(F)c3)n2)s1 [Compound 176, N-(3-fluorophenyl)-4-(5-methoxythiophen-2-yl)pyrimidin-2-amine]
10 to 100 | 10 to 100 | COc1cc(-c2ccnc(Nc3ccncn3)n2)ccn1 [Compound 177, 4-(2-methoxypyridin-4-yl)-N-(pyrimidin-4-yl)pyrimidin-2-amine]
10 to 100 | 10 to 100 | Oc1cc(-c2ccnc(Nc3cncnc3)n2)ccn1 [Compound 178, 4-(2-(pyrimidin-5-ylamino)pyrimidin-4-yl)pyridin-2-ol]
10 to 100 | 10 to 100 | COc1cc(-c2ccnc(Nc3cncnc3)n2)ccn1 [Compound 179, 4-(2-methoxypyridin-4-yl)-N-(pyrimidin-5-yl)pyrimidin-2-amine]
1 to 10 | 1 to 10 | COc1ncc(-c2ccnc(Nc3cccc(F)c3)n2)s1 [Compound 180, N-(3-fluorophenyl)-4-(2-methoxythiazol-5-yl)pyrimidin-2-amine]
0.2 to 1 | 0.2 to 1 | Oc1ncc(-c2ccnc(Nc3cccc(F)c3)n2)s1 [Compound 181, 5-(2-((3-fluorophenyl)amino)pyrimidin-4-yl)thiazol-2-ol]
1 to 10 | 1 to 10 | Oc1ccnc(-c2ccnc(Nc3cccc(F)c3)n2)c1 [Compound 182, 2-(2-((3-fluorophenyl)amino)pyrimidin-4-yl)pyridin-4-ol]
1 to 10 | 1 to 10 | Oc1ccnc(-c2ccnc(Nc3ccccc3)n2)c1 [Compound 183, 2-(2-(phenylamino)pyrimidin-4-yl)pyridin-4-ol]
10 to 100 | 10 to 100 | Oc1cc(-c2ccnc(Nc3ncccn3)n2)ccn1 [Compound 184, 4-(2-(pyrimidin-2-ylamino)pyrimidin-4-yl)pyridin-2-ol]
1 to 10 | 1 to 10 | COC(=O)c1cccc(Nc2nccc(-c3ccnc(O)c3)n2)c1 [Compound 185, methyl 3-((4-(2-hydroxypyridin-4-yl)pyrimidin-2-yl)amino)benzoate]
10 to 100 | 10 to 100 | Oc1cc(-c2ccnc(Nc3ccccn3)n2)ccn1 [Compound 186, 4-(2-(pyridin-2-ylamino)pyrimidin-4-yl)pyridin-2-ol]
10 to 100 | 10 to 100 | COc1cc(-c2ccnc(Nc3ccccn3)n2)ccn1 [Compound 187, 4-(2-methoxypyridin-4-yl)-N-(pyridin-2-yl)pyrimidin-2-amine]
1 to 10 | 1 to 10 | Oc1cc(-c2ccnc(Nc3cccnc3)n2)ccn1 [Compound 188, 4-(2-(pyridin-3-ylamino)pyrimidin-4-yl)pyridin-2-ol]
